Test results as given in US12582722B2, “Bifunctional compounds for degrading BTK via ubiquitin proteosome pathway” (NURIX THERAPEUTICS, INC., priority 2019, dated 2026).

What follows are molecules tested against T1, BTK (Homo sapiens, UniProt Q06187) (assay: Cellular BTK HTRF Assay (BTK degradation in Ramos cells)). Settings: four hours incubation, 37° C., BTK levels relative to DMSO-treated cells.
T1 construct: endogenous in cells; host or cells: Ramos (ATCC CRL-1596)
Format: cell-based
Description: Ramos (CRL-1596) cells were obtained from American Type Culture Collection and were grown in RPMI-1640 media (ATCC, 30-2001) supplemented with 10% heat-inactivated FBS (Corning Premium Fetal Bovine Serum from Fisher, MT35015CV).
Compounds of the present invention were added to 50,000 Ramos cells in round-bottom 96 well plates with a final DMSO concentration of […] and were incubated at 37° C., 5% CO2 for four hours. BTK levels were determined using Cisbio Total-BTK HTRF ([…] Time-Resolved Fluorescence) kit (63ADK064PEG) according to manufacturer's protocol. Briefly, cells were incubated in 1× supplied lysis buffer for 30 minutes. In an opaque white low volume 96 well plate (Cisbio, 66PL96005), cell lysate was combined with two different specific BTK antibodies, one conjugated with Eu^3+-Cryptate FRET donor and one conjugated with d2 FRET acceptor. Assay controls include wells containing cell lysate with only the Eu^3+-Cryptate FRET donor antibody and wells containing both HTRF antibodies and lysis buffer without cells or control lysate provided by Cisbio. HTRF ratio was calculated as (acceptor signal at 665 nm/donor signal at 620 nm)×10^4. Background HTRF levels were determined from the control well containing the donor, but no acceptor, antibody. Background HTRF levels were subtracted from all samples. Readouts were reported as HTRF levels relative to HTRF levels of DMSO-treated cells. Four-parameter non-linear regressions were performed in GraphPad Prism 7.02 to obtain DC50 values. DC50 values are provided in Table 3, wherein A<7.5 nM, 7.5 nM≤B≤50 nM, and 50 nM<C<500 nM.

T1 sequence (Q06187 whole entry): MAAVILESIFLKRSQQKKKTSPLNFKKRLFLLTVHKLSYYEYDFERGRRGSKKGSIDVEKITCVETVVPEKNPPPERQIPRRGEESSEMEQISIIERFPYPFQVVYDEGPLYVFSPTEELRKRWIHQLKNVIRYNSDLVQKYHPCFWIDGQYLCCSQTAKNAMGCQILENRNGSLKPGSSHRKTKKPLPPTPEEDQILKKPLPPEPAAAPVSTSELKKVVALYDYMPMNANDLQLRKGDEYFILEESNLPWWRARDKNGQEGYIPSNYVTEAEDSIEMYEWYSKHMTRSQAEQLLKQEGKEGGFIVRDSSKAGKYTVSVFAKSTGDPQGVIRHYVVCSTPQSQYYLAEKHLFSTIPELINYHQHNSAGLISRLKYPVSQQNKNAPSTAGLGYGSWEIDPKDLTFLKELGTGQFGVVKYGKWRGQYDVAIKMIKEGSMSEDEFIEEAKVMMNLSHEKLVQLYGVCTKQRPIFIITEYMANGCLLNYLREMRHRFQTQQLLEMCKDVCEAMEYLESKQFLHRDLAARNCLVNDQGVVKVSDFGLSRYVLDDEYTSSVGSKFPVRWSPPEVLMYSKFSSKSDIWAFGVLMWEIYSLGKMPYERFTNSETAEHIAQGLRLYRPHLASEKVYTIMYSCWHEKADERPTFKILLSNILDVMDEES

| SMILES | DC50 [nM] |
| --- | --- |
| CS(=O)(=O)c1ccc(Nc2nc(N3CCC[C@@H](NC(=O)C4CC5CCC(C4)N5C4CCN(c5ccc6c(c5)C(=O)N(C5CCC(=O)NC5=O)C6=O)CC4)C3)cnc2C(N)=O)cc1 (stereo partly drawn) [Compound 41, N-[(3R)-1-{5-carbamoyl-6-[(4-methanesulfonylphenyl)amino]pyrazin-2-yl}piperidin-3-yl]-8-{1-[2-(2,6-dioxopiperidin-3-yl)-1,3-dioxoisoindol-5-yl]piperidin-4-yl}-8-azabicyclo[3.2.1]octane-3-carboxamide] | 50 to 500 |
| CS(=O)(=O)c1ccc(Nc2nc(N3CCC[C@@H](NC(=O)N4CCC5(CCN(c6ccc7c(c6)C(=O)N(C6CCC(=O)NC6=O)C7=O)CC5)C4)C3)cnc2C(N)=O)cc1 (stereo partly drawn) [Compound 10, N—((R)-1-(5-carbamoyl-6-((4-(methylsulfonyl)phenyl)amino)pyrazine-2-yl)piperidin-3-yl)-8-(2-(2,6-dioxopiperidin-3-yl)-1,3-dioxoisoindolin-5-yl)-2,8-diazaspiro[4.5]decane-2-carboxamide] | 7.5 to 50 |
| CS(=O)(=O)c1ccc(Nc2nc(N3CCC[C@@H](NC(=O)C4CCN(C5CCN(c6ccc7c(c6)C(=O)N(C6CCC(=O)NC6=O)C7=O)CC5)CC4)C3)cnc2C(N)=O)cc1 (stereo partly drawn) [Compound 40, N—((R)-1-(5-carbamoyl-6-((4-(methylsulfonyl)phenyl)amino)pyrazin-2-yl)piperidin-3-yl)-1′-(2-(2,6-dioxopiperidin-3-yl)-1,3-dioxoisoindolin-5-yl)-[1,4′-bipiperidine]-4-carboxamide] | 50 to 500 |
| Cc1cc(Nc2nc(N3CCCC(NC(=O)CCOCCCc4cccc5c4CN(C4CCC(=O)NC4=O)C5=O)C3)cnc2C(N)=O)sn1 (stereo in doubt) [Compound 45, 5-[(3R)-3-(3-{3-[2-(2,6-dioxopiperidin-3-yl)-1-oxo-3H-isoindol-4-yl]propoxy}propanamido)piperidin-1-yl]-3-[(3-methyl-1,2-thiazol-5-yl)amino]pyrazine-2-carboxamide] | 50 to 500 |
| CS(=O)(=O)c1ccc(Nc2nc(N3CCC[C@@H](NC(=O)OCCCCCOc4ccc5c(c4)C(=O)N(C4CCC(=O)NC4=O)C5=O)C3)cnc2C(N)=O)cc1 (stereo partly drawn) [Compound 2, 5-((2-(2,6-dioxopiperidin-3-yl)-1,3-dioxoisoindolin-5-yl)oxy)pentyl ((R)-1-(5-carbamoyl-6-((4-(methylsulfonyl)phenyl)amino)pyrazin-2-yl)piperidin-3-yl)carbamate] | 7.5 to 50 |
| Cc1cc(Nc2nc(N3CCC[C@@H](NC(=O)N4CCC5(CC4)CCN(c4ccc6c(c4)C(=O)N(C4CCC(=O)NC4=O)C6=O)CC5)C3)cnc2C(N)=O)sn1 (stereo partly drawn) [Compound 12, N-[(3R)-1-{5-carbamoyl-6-[(3-methyl-1,2-thiazol-5-yl)amino]pyrazin-2-yl}piperidin-3-yl]-9-[2-(2,6-dioxopiperidin-3-yl)-1,3-dioxoisoindol-5-yl]-3,9-diazaspiro[5.5]undecane-3-carboxamide] | 7.5 to 50 |
| CS(=O)(=O)c1ccc(Nc2nc(N3CCC[C@@H](NC(=O)[C@H]4[C@@H]5CN(C6CCN(c7ccc8c(c7)C(=O)N(C7CCC(=O)NC7=O)C8=O)CC6)C[C@@H]54)C3)cnc2C(N)=O)cc1 (stereo partly drawn) [Compound 35, (1R,5S,6r)-N—((R)-1-(5-carbamoyl-6-((4-(methylsulfonyl)phenyl)amino)pyrazin-2-yl)piperidin-3-yl)-3-(1-(2-(2,6-dioxopiperidin-3-yl)-1,3-dioxoisoindolin-5-yl)piperidin-4-yl)-3-azabicyclo[3.1.0]hexane-6-carboxamide] | 7.5 to 50 |
| CS(=O)(=O)c1ccc(Nc2nc(N3CCC[C@@H](NC(=O)N4CC5(CN(Cc6ccc7c(c6)C(=O)N(C6CCC(=O)NC6=O)C7=O)C5)C4)C3)cnc2C(N)=O)cc1 (stereo partly drawn) [Compound 25, N-[(3R)-1-{5-carbamoyl-6-[(4-methanesulfonylphenyl)amino]pyrazin-2-yl}piperidin-3-yl]-6-{[2-(2,6-dioxopiperidin-3-yl)-1,3-dioxoisoindol-5-yl]methyl}-2,6-diazaspiro[3.3]heptane-2-carboxamide] | 7.5 to 50 |
| CS(=O)(=O)c1ccc(Nc2nc(N3CCC[C@@H](NC(=O)OCCCCCCCOc4ccc5c(c4)C(=O)N(C4CCC(=O)NC4=O)C5=O)C3)cnc2C(N)=O)cc1 (stereo partly drawn) [Compound 3, 7-((2-(2,6-dioxopiperidin-3-yl)-1,3-dioxoisoindolin-5-yl)oxy)heptyl ((R)-1-(5-carbamoyl-6-((4-(methylsulfonyl)phenyl)amino)pyrazin-2-yl)piperidin-3-yl)carbamate] | 7.5 to 50 |

Next, values leading:

| DC50 [nM] | SMILES |
| --- | --- |
| 7.5 to 50 | CS(=O)(=O)c1ccc(Nc2nc(N3CCC[C@@H](NC(=O)[C@H]4CCN(CC5CCN(c6ccc7c(c6)C(=O)N(C6CCC(=O)NC6=O)C7=O)CC5)C4)C3)cnc2C(N)=O)cc1 (stereo partly drawn) [Compound 46, 5-[(3R)-3-[1-({1-[2-(2,6-dioxopiperidin-3-yl)-1,3-dioxoisoindol-5-yl]piperidin-4-yl}methyl)pyrrolidine-3-amido]piperidin-1-yl]-3-[(4-methanesulfonylphenyl)amino]pyrazine-2-carboxamide] |
| < 7.5 | Cn1cc(Nc2nc(N3CCC[C@@H](NC(=O)C4CCN(CC5CCN(c6ccc7c(c6)C(=O)N(C6CCC(=O)NC6=O)C7=O)CC5)CC4)C3)cnc2C(N)=O)cn1 (stereo partly drawn) [Compound 21, 5-((3R)-3-(1-((1-(2-(2,6-dioxopiperidin-3-yl)-1,3-dioxoisoindolin-5-yl)piperidin-4-yl)methyl)piperidine-4-carboxamido)piperidin-1-yl)-3-((1-methyl-1H-pyrazol-4-yl)amino)pyrazine-2-carboxamide] |
| < 7.5 | Cn1cc(Nc2nc(N3CCC[C@@H](N4CC5(CN(CC6CN(c7ccc8c(c7)C(=O)N(C7CCC(=O)NC7=O)C8=O)C6)C5)OC4=O)C3)cnc2C(N)=O)cn1 (stereo partly drawn) [Compound 42, 5-((3R)-3-(2-((1-(2-(2,6-dioxopiperidin-3-yl)-1,3-dioxoisoindolin-5-yl)azetidin-3-yl)methyl)-6-oxo-5-oxa-2,7-diazaspiro[3.4]octan-7-yl)piperidin-1-yl)-3-((1-methyl-1H-pyrazol-4-yl)amino)pyrazine-2-carboxamide] |
| < 7.5 | Cc1cc(Nc2nc(N3CCC[C@@H](NC(=O)C4CCN(CC5CN(c6ccc7c(c6)C(=O)N(C6CCC(=O)NC6=O)C7=O)C5)C4)C3)cnc2C(N)=O)sn1 (stereo partly drawn) [Compound 16, 5-[(3R)-3-[1-({1-[2-(2,6-dioxopiperidin-3-yl)-1,3-dioxoisoindol-5-yl]azetidin-3-yl}methyl)pyrrolidine-3-amido]piperidin-1-yl]-3-[(3-methyl-1,2-thiazol-5-yl)amino]pyrazine-2-carboxamide] |
| < 7.5 | Cc1cc(Nc2nc(N3CCC[C@@H](NC(=O)C4CCN(C5CN(Cc6ccc7c(c6)C(=O)N(C6CCC(=O)NC6=O)C7=O)C5)CC4)C3)cnc2C(N)=O)sn1 (stereo partly drawn) [Compound 37, 5-[(3R)-3-[1-(1-{[2-(2,6-dioxopiperidin-3-yl)-1,3-dioxoisoindol-5-yl]methyl}azetidin-3-yl)piperidine-4-amido]piperidin-1-yl]-3-[(3-methyl-1,2-thiazol-5-yl)amino]pyrazine-2-carboxamide] |
| < 7.5 | CS(=O)(=O)c1ccc(Nc2nc(N3CCC[C@@H](NC(=O)C4CCN(CC5CCN(c6ccc7c(c6)C(=O)N(C6CCC(=O)NC6=O)C7=O)CC5)C4)C3)cnc2C(N)=O)cc1 (stereo partly drawn) [Compound 14, 5-[(3R)-3-[1-({1-[2-(2,6-dioxopiperidin-3-yl)-1,3-dioxoisoindol-5-yl]piperidin-4-yl}methyl)pyrrolidine-3-amido]piperidin-1-yl]-3-[(4-methanesulfonylphenyl)amino]pyrazine-2-carboxamide] |
| < 7.5 | Cc1cc(Nc2nc(N3CCC[C@@H](NC(=O)N4CCN(CC5CN(c6ccc7c(c6)C(=O)N(C6CCC(=O)NC6=O)C7=O)C5)CC4)C3)cnc2C(N)=O)sn1 (stereo partly drawn) [Compound 18, 5-[(3R)-3-[4-({1-[2-(2,6-dioxopiperidin-3-yl)-1,3-dioxoisoindol-5-yl]azetidin-3-yl}methyl)piperazine-1-carbonylamino]piperidin-1-yl]-3-[(3-methyl-1,2-thiazol-5-yl)amino]pyrazine-2-carboxamide] |
| < 7.5 | Cn1cc(Nc2nc(N3CCC[C@@H](NC(=O)C4CCN(CC5CN(c6ccc7c(c6)C(=O)N(C6CCC(=O)NC6=O)C7=O)C5)CC4)C3)cnc2C(N)=O)cn1 (stereo partly drawn) [Compound 19, 5-[(3R)-3-[1-({1-[2-(2,6-dioxopiperidin-3-yl)-1,3-dioxoisoindol-5-yl]azetidin-3-yl}methyl)piperidine-4-amido]piperidin-1-yl]-3-[(1-methylpyrazol-4-yl)amino]pyrazine-2-carboxamide] |
| < 7.5 | CS(=O)(=O)c1ccc(Nc2nc(N3CCC[C@@H](NC(=O)N4CCC5(CC4)CN(Cc4ccc6c(c4)C(=O)N(C4CCC(=O)NC4=O)C6=O)C5)C3)cnc2C(N)=O)cc1 (stereo partly drawn) [Compound 29, N-[(3R)-1-{5-carbamoyl-6-[(4-methanesulfonylphenyl)amino]pyrazin-2-yl}piperidin-3-yl]-2-{[2-(2,6-dioxopiperidin-3-yl)-1,3-dioxoisoindol-5-yl]methyl}-2,7-diazaspiro[3.5]nonane-7-carboxamide] |
